Laboratory results published in ChEMBL document CHEMBL4680113, “Tigliane Diterpenoids as a New Type of Antiadipogenic Agents Inhibit GRα-Dexras1 Axis in Adipocytes” (J Med Chem, 2019).
Calls of active or inactive are those of the source. The calls are words filed in the database; no cut-off is given here.

What was measured:
[1] = tested on: 3T3-L1; experiment: Lipid lowering activity in mouse 3T3-L1 cells assessed as reduction in adipogenic cocktail-induced triglyceride levels at 1 to 10 uM by Oil-Red O staining; format: functional, cell-based; conditions: dose 1-10 µM
[2] = tested on: 3T3-L1; experiment: Lipid lowering activity in mouse 3T3-L1 cells assessed as reduction in adipogenic cocktail-induced triglyceride levels at 10 uM incubated for 6 days by GPO-POD assay; format: functional; conditions: for inhibition at 10 µM: 3T3-L1, 144 h, time 6 day; for inhibition: time 6.0 day
[3] = tested on: 3T3-L1; experiment: Toxicity in mouse 3T3-L1 cells assessed as reduction in cell viability at 10 uM incubated for 6 days by LDH release assay; format: cell-based; conditions: 3t3-l1, 144 h, time 6 day
[4] = tested on: 3T3-L1; experiment: Activation of adipogenic cocktail-induced PPARgamma mRNA expression in mouse 3T3-L1 cells at 1 uM by RT-qPCR analysis; format: functional, cell-based
[5] = tested on: 3T3-L1; experiment: Lipid increasing activity in mouse 3T3-L1 cells assessed as increase in adipogenic cocktail induced triglyceride levels at 1 uM incubated for 6 days by GPO-POD assay; format: functional, cell-based; conditions: time 6.0 day
[6] = tested on: 3T3-L1; experiment: Activation of GR-alpha in mouse 3T3-L1 cells assessed as increase in adipogenic cocktail-induced Dexras1 mRNA expression at 10 uM incubated for 4 hrs by RT-qPCR analysis; format: cell-based; conditions: filed as agonist
[7] = tested on: 3T3-L1; experiment: Inhibition of GR-alpha in mouse 3T3-L1 cells assessed as reduction in adipogenic cocktail-induced Dexras1 mRNA expression at 10 uM incubated for 4 hrs by RT-qPCR analysis; format: cell-based; conditions: filed as antagonist
[8] = tested on: 3T3-L1; experiment: Inhibition of adipogenic cocktail-induced GR-alpha nuclear translocation in mouse 3T3-L1 cells at 10 uM after 8 hrs by Western blot analysis; format: cell-based; conditions: filed as antagonist
[9] = tested on: 3T3-L1; experiment: Inhibition of adipogenic cocktail-induced PPARgamma mRNA expression in mouse 3T3-L1 cells at 1 uM by RT-qPCR analysis; format: functional, cell-based
[10] = tested on: 3T3-L1; experiment: Lipid lowering activity in mouse 3T3-L1 cells assessed as reduction in adipogenic cocktail induced triglyceride levels at 1 uM incubated for 6 days by GPO-POD assay; format: functional, cell-based; conditions: time 6.0 day

Compound: CC(=O)O[C@@H]1[C@H]2[C@@H](OC(C)=O)[C@](C)(O)C[C@]2(OC(C)=O)[C@H](OC(=O)c2ccccc2)[C@]2(C)OC[C@]13[C@H](OC(C)=O)C=C[C@H](C(C)(C)OC(C)=O)[C@@H]23
- inhibition [1]: Active
- inhibition at 10 µM [2]: > 60%
- Activity [3]: Non-Toxic

Compound: CCC(=O)O[C@@H]1[C@@H]2[C@@H](OC(C)=O)[C@@]34CO[C@@](C)([C@H](OC(C)=O)[C@@]2(OC(C)=O)C[C@@H]1C)[C@@H]3[C@@H]1[C@@H](C[C@]1(C)OC(C)=O)[C@@H](O)C4=O
- inhibition [1]: Active
- inhibition [2]: Active
- Activity [3]: Non-Toxic

Compound: CCC(=O)O[C@@H]1[C@@H]2[C@@H](OC(C)=O)[C@@]34CO[C@@](C)([C@H](OC(=O)c5ccccc5)[C@@]2(OC(C)=O)C[C@@H]1C)[C@@H]3[C@@H](C(C)(C)OC(C)=O)C=CC4=O
- inhibition [2]: Active

Compound: CCC(=O)O[C@@H]1[C@@H]2[C@@H](OC(C)=O)[C@@]34CO[C@@](C)([C@H](OC(C)=O)[C@@]2(OC(C)=O)C[C@@H]1C)[C@@H]3[C@@H]1[C@@H](C[C@]1(C)OC(C)=O)[C@@H](OC(=O)C(C)CC)C4=O (some centres not stated)
- inhibition [2]: inactive

Compound: CC1=C[C@@H]2[C@H](C1=O)[C@H](O)C(C)=C[C@H]1[C@@H]3C(C)(C)[C@]3(OC(=O)C(C)C)[C@H](OC(=O)c3ccccc3)[C@@H](C)[C@]21O [EUPHODENDRIANE A]
- inhibition [1]: Active
- inhibition at 10 µM [2]: > 50%
- Activity [3]: Non-Toxic

Compound: CC(=O)O[C@@H]1[C@@H]2[C@@H](OC(C)=O)[C@@]34CO[C@@](C)([C@H](OC(C)=O)[C@@]2(OC(C)=O)C[C@@H]1C)[C@@H]3[C@@H]1[C@@H](C[C@]1(C)OC(C)=O)[C@@H](OC(=O)c1ccccc1)C4=O
- inhibition [2]: Active

Compound: CC(=O)O[C@@H]1[C@H]2[C@@H](OC(=O)c3cccnc3)[C@@H](C)C[C@]2(OC(C)=O)[C@@H](OC(C)=O)[C@]2(C)OC[C@]13C(=O)[C@@H](O)[C@@H]1C[C@](C)(OC(C)=O)[C@@H]1[C@@H]23
- inhibition [2]: inactive

Compound: CC(=O)O[C@@H]1[C@H]2[C@@H](OC(=O)c3cccnc3)[C@@H](C)C[C@]2(OC(C)=O)[C@@H](OC(C)=O)[C@]2(C)OC[C@]13C(=O)[C@H](OC(=O)C(C)C)[C@@H]1C[C@](C)(OC(C)=O)[C@@H]1[C@@H]23
- inhibition [2]: inactive

Compound: CC(=O)O[C@@H]1[C@@H]2[C@@H](OC(C)=O)[C@@]34CO[C@@](C)([C@H](OC(C)=O)[C@@]2(OC(C)=O)C[C@@H]1C)[C@@H]3[C@@H]1[C@@H](C[C@]1(C)OC(C)=O)[C@H](O)C4=O
- inhibition [1]: Active
- inhibition at 10 µM [2]: > 60%
- Activity [3]: Non-Toxic

Compound: CC(=O)O[C@@H]1[C@@H]2[C@@H](OC(C)=O)[C@@]34CO[C@@](C)([C@H](OC(C)=O)[C@@]2(OC(C)=O)C[C@@H]1C)[C@@H]3[C@@H]1[C@@H](C[C@]1(C)OC(C)=O)[C@@H](OC(=O)C(C)C)C4=O
- inhibition [2]: inactive

Compound: CC(=O)O[C@@H]1[C@H]2[C@@H](OC(=O)c3cccnc3)[C@@H](C)C[C@]2(OC(C)=O)[C@@H](OC(C)=O)[C@]2(C)OC[C@]13C(=O)[C@H](O)[C@@H]1C[C@](C)(OC(C)=O)[C@@H]1[C@@H]23
- inhibition [1]: Active
- inhibition [2]: inactive
- Activity [3]: Non-Toxic

Compound: CC(=O)O[C@@H]1[C@H]2[C@@H](OC(=O)c3cccnc3)[C@@H](C)C[C@]2(OC(C)=O)[C@@H](OC(C)=O)[C@]2(C)OC[C@]13C(=O)[C@H](OC(=O)c1ccccc1)[C@@H]1C[C@](C)(OC(C)=O)[C@@H]1[C@@H]23
- inhibition [2]: inactive

Compound: C[C@H]1C[C@@H]2[C@H]([C@@H](O)C[C@@]3(C)[C@H]2CC[C@]3(O)C(=O)CO)[C@@]2(C)C=CC(=O)C=C12
- Activity [4]: Active
- Activity [5]: Active
- Activity [6]: Active

Compound: CC1=C[C@H]2[C@@H]3C(C)(C)[C@]3(OC(=O)C(C)C)[C@H](OC(=O)c3ccccc3)[C@@H](C)[C@]2(O)[C@@H]2C=C(C)C(=O)C2=C1
- inhibition [1]: Active
- inhibition at 10 µM [2]: > 50%
- Activity [3]: Non-Toxic

Compound: CCCC(=O)O[C@@H]1[C@@H]2[C@@H](OC(C)=O)[C@@]34CO[C@@](C)([C@H](OC(C)=O)[C@@]2(OC(C)=O)C[C@@H]1C)[C@@H]3[C@@H](C(C)(C)OC(C)=O)C=C[C@H]4OC(C)=O
- inhibition [1]: Active
- inhibition at 10 µM [2]: > 60%
- Activity [3]: Non-Toxic

Compound: CC(=O)OC[C@]12[C@H](OC(=O)c3ccccc3)[C@H]3[C@@H](OC(=O)c4cccnc4)[C@@H](C)C[C@]3(O)C(=O)[C@@](C)(OC(C)=O)[C@@H]1[C@@H]1[C@H](C[C@H]2OC(C)=O)C1(C)C
- inhibition [1]: Active
- inhibition at 10 µM [2]: > 60%
- Activity [3]: Non-Toxic

Compound: CC#C[C@]1(O)CC[C@H]2[C@@H]3CCC4=CC(=O)CCC4=C3[C@@H](c3ccc(N(C)C)cc3)C[C@@]21C
- inhibition [7]: Active
- inhibition [8]: Active
- inhibition [9]: Active
- inhibition [10]: Active

Compound: CCC(=O)O[C@@H]1[C@@H]2[C@@H](OC(=O)c3ccccc3)[C@@]3(COC(C)=O)[C@@H]([C@@H]4[C@H](C[C@H]3OC(C)=O)C4(C)C)[C@](C)(OC(C)=O)C(=O)[C@@]2(O)C[C@@H]1C
- inhibition [1]: Active
- inhibition at 10 µM [2]: > 60%
- Activity [3]: Non-Toxic

Compound: CCC(=O)O[C@@H]1[C@@H]2[C@@H](OC(C)=O)[C@@]34CO[C@@](C)([C@H](OC(C)=O)[C@@]2(O)C[C@@H]1C)[C@@H]3[C@@H]1[C@@H](C[C@]1(C)OC(C)=O)[C@@H](OC(=O)c1ccccc1)C4=O
- inhibition [2]: inactive

Compound: CCC(=O)O[C@@H]1[C@@H]2[C@@H](OC(C)=O)[C@@]34CO[C@@](C)([C@H](OC(C)=O)[C@@]2(OC(C)=O)C[C@@H]1C)[C@@H]3[C@@H]1[C@@H](C[C@]1(C)OC(C)=O)[C@@H](OC(=O)C(C)C)C4=O
- inhibition [1]: Active
- inhibition at 10 µM [2]: > 60%
- Activity [3]: Non-Toxic

Compound: CCC(=O)O[C@@H]1[C@@H]2[C@@H](OC(C)=O)[C@@]34CO[C@@](C)([C@H](OC(C)=O)[C@@]2(OC(C)=O)C[C@@H]1C)[C@@H]3[C@@H]1[C@@H](C[C@]1(C)OC(C)=O)[C@@H](OC(=O)c1ccccc1)C4=O
- inhibition [1]: Active
- inhibition [2]: Active
- Activity [3]: Non-Toxic

Compound: CCCC(=O)O[C@@H]1[C@@H]2[C@@H](OC(C)=O)[C@@]34CO[C@@](C)([C@H](OC(C)=O)[C@@]2(OC(C)=O)C[C@@H]1C)[C@@H]3[C@@H]1[C@@H](C[C@]1(C)OC(C)=O)[C@@H](OC(=O)c1ccccc1)C4=O
- inhibition [2]: Active

Compound: CC(=O)O[C@@H]1[C@]2(C)OC[C@]3(C(=O)C=C[C@H](C(C)(C)OC(C)=O)[C@@H]23)[C@H](OC(C)=O)[C@H]2[C@@H](OC(=O)c3cccnc3)[C@@H](C)C[C@@]21OC(C)=O
- inhibition [2]: inactive

Compound: CC(=O)O[C@@H]1[C@@H]2[C@@H](OC(C)=O)[C@@]34CO[C@@](C)([C@H](OC(=O)c5ccccc5)[C@@]2(O)C[C@@H]1C)[C@@H]3[C@@H]1[C@@H](C[C@]1(C)OC(C)=O)[C@@H](OC(=O)c1ccccc1)C4=O
- inhibition [2]: inactive

Compound: CC(=O)O[C@@H]1[C@H]2[C@@H](OC(C)=O)[C@](C)(OC(C)=O)C[C@]2(OC(C)=O)[C@H](OC(=O)c2ccccc2)[C@]2(C)OC[C@]13[C@H](OC(C)=O)C=C[C@H](C(C)(C)OC(C)=O)[C@@H]23
- inhibition [1]: Active
- inhibition at 10 µM [2]: > 60%
- Activity [3]: Non-Toxic

Compound: CCC(=O)O[C@@H]1[C@@H]2[C@@H](OC(C)=O)[C@@]34CO[C@@](C)([C@@H](OC(=O)C(C)CC)[C@@]2(OC(C)=O)C[C@@]1(C)OC(C)=O)[C@@H]3[C@@H](C(C)(C)OC(C)=O)C=C[C@H]4OC(C)=O (some centres not stated)
- inhibition [1]: Active
- inhibition at 10 µM [2]: > 60%
- Activity [3]: Non-Toxic
